Reference: patent US12433913B2, “Treatment of acute respiratory disease syndrome (ARDS) with polysulfated polysaccharides” (Paradigm Biopharmaceuticals Ltd., priority 2020, dated 2025)
Values joined by “and” are separate entries in the source; they are usually repeats but may differ in a detail not shown here. Equal values may be shown once. Read-outs that look alike come from different tables or passages of the source.

Key:
[1] = tested on: alphavirus; conditions: within 3 to 10 days post PPS treatment in infected animals; cited from earlier work
[2] = tested on: SARS-CoV-2; type: cell-based, Vero (Africa Green Monkey kidney epithelium); conditions: for PFU/well: replicates
[3] = tested on: H1N1 PR-8 influenza strain; assay: Influenza virus-induced ARDS mouse model (Study 1); type: in vivo, C57BL/6J mice
[4] = tested on: IL-8, MCP-1 and MIP-1a; conditions: cited from earlier work
[5] = tested on: allergen induced asthma; conditions: intra-tracheal PPS; cited from earlier work
[6] = 2 mg/kg twice weekly subcutaneously; cited from earlier work
[7] = tested on: SARS-CoV-2; type: cell-based, Vero (Africa Green Monkey kidney epithelium); conditions: for PFU/well: replicates; remark: listed apart in the source
[8] = tested on: SARS-CoV-2; type: cell-based, Vero (Africa Green Monkey kidney epithelium); conditions: for PFU/well: replicates; remark: listed apart in the source
[9] = biological target: T1, human leukocyte elastase (human neutrophil elastase) (Homo sapiens, UniProt P08246); conditions: cited from earlier work
T1 sequence (P08246 30-267): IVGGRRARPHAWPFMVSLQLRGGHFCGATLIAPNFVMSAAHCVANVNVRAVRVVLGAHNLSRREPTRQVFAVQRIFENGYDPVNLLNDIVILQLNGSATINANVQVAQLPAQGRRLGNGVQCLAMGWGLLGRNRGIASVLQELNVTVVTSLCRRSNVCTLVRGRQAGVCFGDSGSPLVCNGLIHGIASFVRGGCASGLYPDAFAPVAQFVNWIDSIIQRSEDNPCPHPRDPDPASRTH

For pentosan polysulfate [PPS], the “Cytokine response (IL-1a; IL-2, IL-6, MIP1a and CCL2)” value [1] is given as “reduction”, the PFU/well ([2]; PPS 12.5 μg/ml on Vero cells 30 min prior to infection with 50 PFU) is given as 35 PFU/well and 33 PFU/well and 34 PFU/well and 40 PFU/well and 41 PFU/well and 39 PFU/well and 36 PFU/well and 37 PFU/well and the PFU/well ([2]; PPS 25 μg/ml on Vero cells 30 min prior to infection with 50 PFU) is given as 29 PFU/well and 31 PFU/well and 27 PFU/well and 25 PFU/well. For the same substance, the PFU/well ([2]; PPS 200 μg/ml on Vero cells 30 min prior to infection with 50 PFU) was 18 PFU/well (2×) and 16 PFU/well (2×) and 20 PFU/well and 21 PFU/well and 17 PFU/well and 19 PFU/well, the “Maximum inhibition of plaque formation” value ([2]; top dose of 200 μg/ml, cells treated 30 min prior to infection) was 60% and the “Number of nuclei/mm^2 in lung sections” value ([3]; 3 mg/kg daily ip, Day 8, compared to vehicle treated animals) was “statistically significant reduction”. The “Number of nuclei/mm^2 in lung sections” value ([3]; 3 mg/kg daily sc, Day 8, compared to vehicle treated animals) was “statistically significant reduction”, the “Level of nuclei/mm^2 in infected PPS treated animals relative to uninfected animals” value ([3]; 3 mg/kg daily, Day 8) was “comparable to uninfected animals” and the Weight loss ([3]; 3 mg/kg daily, ip or sc, compared to infected animals treated with vehicle) was “reduced weight loss”. For the same substance, the “Cellular infiltration in representative lung sections” value ([3]; 3 mg/kg ip or sc, Day 8, compared to vehicle treated animals) was “reduced cellular infiltration”, the “Fibrotic response (collagen, Masson's Trichrome stain)” value ([3]; 3 mg/kg sc from Day 0 or Day 2 post-infection, Day 21, compared to vehicle) was “fibrotic response was reduced” and the Oxygen saturation levels ([3]; 3 mg/kg sc from Day 0 or Day 2 post-infection, measured Day 6 and Day 8, compared to vehicle treated infected animals) was “improved oxygen saturation levels”. The “Cell movement induced by IL-8, MCP-1 and MIP-1a” value [4] was “inhibits cell movement”, the Airway hyper-reactivity [5] was “inhibited” and the Lung compliance [5] was “increased”. For the same substance, the “Total number of infiltrating leukocytes and neutrophils in the bronchoalveolar fluid” value [5] was “significantly reduced”, the “Total protein content in the bronchoalveolar fluid” value [5] was “significantly reduced” and the “Effect on blood coagulation” value [6] was “no lasting effect on blood coagulation”. For the same substance, the PFU/well ([7]; PPS 12.5 μg/ml incubated with both virus and cells 30 min prior to infection) was 18 PFU/well and 19 PFU/well and 17 PFU/well and 22 PFU/well and 20 PFU/well (2×) and 25 PFU/well and 26 PFU/well, the PFU/well ([7]; PPS 25 μg/ml incubated with both virus and cells 30 min prior to infection) was 18 PFU/well and 15 PFU/well (2×) and 20 PFU/well and 21 PFU/well and 19 PFU/well and 22 PFU/well and 17 PFU/well and the PFU/well ([7]; PPS 50 μg/ml incubated with both virus and cells 30 min prior to infection) was 12 PFU/well and 14 PFU/well (2×) and 15 PFU/well and 13 PFU/well and 18 PFU/well (2×) and 16 PFU/well. The PFU/well ([7]; PPS 100 μg/ml incubated with both virus and cells 30 min prior to infection) was 8 PFU/well and 12 PFU/well and 11 PFU/well and 7 PFU/well and 13 PFU/well and 10 PFU/well and 16 PFU/well and 9 PFU/well, the PFU/well ([7]; PPS 200 μg/ml incubated with both virus and cells 30 min prior to infection) was 6 PFU/well and 12 PFU/well and 10 PFU/well (2×) and 8 PFU/well and 11 PFU/well and 14 PFU/well and 13 PFU/well and the “Maximum inhibition of plaque formation” value ([7]; top dose of 200 μg/ml, virus and cells treated 30 min prior to infection) was 77%. The PFU/well ([8]; PPS 12.5 μg/ml incubated with virus inoculum 30 min prior to addition to Vero cells) was 31 PFU/well and 33 PFU/well and 39 PFU/well and 34 PFU/well and 42 PFU/well and 38 PFU/well and 40 PFU/well and 37 PFU/well, the PFU/well ([8]; PPS 25 μg/ml incubated with virus inoculum 30 min prior to addition to Vero cells) was 25 PFU/well and 28 PFU/well (2×) and 31 PFU/well (2×) and 34 PFU/well and 33 PFU/well and 35 PFU/well and the PFU/well ([8]; PPS 50 μg/ml incubated with virus inoculum 30 min prior to addition to Vero cells) was 24 PFU/well and 21 PFU/well and 28 PFU/well and 31 PFU/well and 32 PFU/well and 30 PFU/well and 29 PFU/well and 26 PFU/well. For the same substance, the PFU/well ([8]; PPS 100 μg/ml incubated with virus inoculum 30 min prior to addition to Vero cells) was 19 PFU/well and 17 PFU/well and 23 PFU/well and 26 PFU/well and 22 PFU/well (2×) and 25 PFU/well and 27 PFU/well, the PFU/well ([8]; PPS 200 μg/ml incubated with virus inoculum 30 min prior to addition to Vero cells) was 16 PFU/well and 12 PFU/well and 20 PFU/well (2×) and 22 PFU/well and 21 PFU/well and 23 PFU/well and 24 PFU/well and the “Maximum inhibition of plaque formation” value ([8]; top dose of 200 μg/ml, virus treated 30 min prior to infection) was 56%. The “Activity on human leukocyte elastase” value [9] was “antagonist”.
